# Measurements from ChEMBL document CHEMBL1201862, “PubChem BioAssay data set” (2004).
# The source made the active and inactive calls.
# Columns and labels:
# [1] = system: Streptococcus sp. 'group A'; assay: Streptococcus pyogenes SK(-)GAS viability under kanamycin – luminescence, BacTiterGlo, confirmation, counter-screen for streptokinase expression inhibitor project, dose response (AID 1900); type: functional, organism-based
# [2] = molecular target: T1, Streptokinase A (Streptococcus pyogenes serotype M1, UniProt P10520); assay: viability-normalized secreted streptokinase activity reduction – plasminogen activation absorbance, OD405, dose response (AID 1914); type: functional, Streptococcus pyogenes M1 GAS;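 further: secreted streptokinase activity via plasminogen activation per viability signal from cell pellet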
# T1 sequence (P10520 whole entry): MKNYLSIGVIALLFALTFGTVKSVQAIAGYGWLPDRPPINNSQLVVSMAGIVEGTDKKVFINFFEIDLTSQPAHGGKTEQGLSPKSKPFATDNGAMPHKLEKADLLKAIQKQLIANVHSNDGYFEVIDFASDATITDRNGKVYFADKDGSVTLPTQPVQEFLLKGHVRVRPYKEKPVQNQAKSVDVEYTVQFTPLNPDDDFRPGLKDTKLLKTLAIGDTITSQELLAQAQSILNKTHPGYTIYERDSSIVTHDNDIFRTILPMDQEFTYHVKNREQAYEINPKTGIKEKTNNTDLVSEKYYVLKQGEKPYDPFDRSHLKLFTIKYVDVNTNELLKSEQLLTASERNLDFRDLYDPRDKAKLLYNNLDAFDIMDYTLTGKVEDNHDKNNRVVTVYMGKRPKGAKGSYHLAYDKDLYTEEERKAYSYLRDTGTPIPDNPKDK
# [3] = system: Streptococcus; assay: GAS UMAA2166 growth inhibition – luminescence, BacTiterGlo, counter-screen for streptokinase expression inhibitor project, dose response (AID 1915); type: functional, organism-based;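 further: potency for reduction of bacterial viability or growth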
# [4] = molecular target: T2, Heat shock factor protein 1 (Mus musculus, UniProt P38532); assay: enhancement of HSF1-driven luciferase signal – cell-based, NIH3T3, luminescence, dose retest, confirmation (AID 435004); type: functional;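 further: stress induced by proteasome inhibitor MG132 added 30 min after compound; luciferase reporter driven by HSF1 response element in NIH3T3 cells; actives raise luminescence as potentiators of the MG132 stress response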
# T2 sequence (P38532 whole entry): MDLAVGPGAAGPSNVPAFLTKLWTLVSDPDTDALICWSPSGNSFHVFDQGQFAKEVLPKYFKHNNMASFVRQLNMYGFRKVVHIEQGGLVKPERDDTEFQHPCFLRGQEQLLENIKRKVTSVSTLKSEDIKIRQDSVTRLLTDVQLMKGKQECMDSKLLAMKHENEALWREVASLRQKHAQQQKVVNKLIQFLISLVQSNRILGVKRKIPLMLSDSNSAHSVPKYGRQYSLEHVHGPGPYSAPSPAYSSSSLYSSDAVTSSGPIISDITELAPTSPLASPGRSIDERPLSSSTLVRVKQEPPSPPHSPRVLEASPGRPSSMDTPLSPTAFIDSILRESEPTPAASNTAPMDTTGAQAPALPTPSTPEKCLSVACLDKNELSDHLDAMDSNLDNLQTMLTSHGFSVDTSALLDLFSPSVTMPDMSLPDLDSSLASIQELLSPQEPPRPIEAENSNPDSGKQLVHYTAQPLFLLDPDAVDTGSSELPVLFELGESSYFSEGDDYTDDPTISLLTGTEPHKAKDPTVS
# [5] = molecular target: T3, Fatty acid synthase (Homo sapiens, UniProt P49327); assay: inhibition of human FAS-TE enzyme activity – biochemical, endpoint fluorescence intensity, uHTS hits, dose response (AID 624327); type: functional;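 further: fluorescence from hydrolysis of an O-methyl fluorescein acyl ester substrate by the enzyme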
# [6] = molecular target: T3, Fatty acid synthase; assay: inhibition of human FAS-TE enzyme activity – biochemical, kinetic fluorescence intensity, dose response (AID 624326); type: functional;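 further: rate of fluorescence rise from hydrolysis of a fluorogenic O-methyl fluorescein ester substrate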
# [7] = Luminescence Cell-Based Dose Retest to Confirm Inhibitors of Cancer Stem Cells. [Related pubchem assays (depositor defined):AID2717, AID2721]; type: functional; conditions: Homo sapiens
# [8] = system: INS1; assay: INS-1E survival protection against cytokine death – cell-based, luminescence, retest, dose response (AID 449756); type: functional; conditions: Rattus norvegicus;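 further: cell death triggered by IL-1 beta plus TNF-alpha plus IFN-gamma mixture; protective hits raise ATP signal compared with cytokine alone wells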
# [9] = molecular target: T4, Polyadenylate-binding protein 1 (Homo sapiens, UniProt P11940); assay: MLLE binding blockers, Cy5 peptide tracer – biochemical, fluorescence polarization, Cy5-PAM2 peptide, secondary, miRNA deadenylation inhibitor project, dose response (AID 602260); type: functional; conditions: read-out: IC50_Mean
# [10] = molecular target: T4, Polyadenylate-binding protein 1; assay: MLLE domain peptide-binding blockers, IC50 – biochemical, fluorescence polarization, FITC-PAM2 peptide, dose response (AID 602259); type: functional; conditions: read-out: IC50_Mean
# [11] = molecular target: T5, Estrogen receptor (Homo sapiens, UniProt P03372);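 further: potency for inhibiting coactivator peptide recruitment to the receptor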
# T5 sequence (P03372 whole entry): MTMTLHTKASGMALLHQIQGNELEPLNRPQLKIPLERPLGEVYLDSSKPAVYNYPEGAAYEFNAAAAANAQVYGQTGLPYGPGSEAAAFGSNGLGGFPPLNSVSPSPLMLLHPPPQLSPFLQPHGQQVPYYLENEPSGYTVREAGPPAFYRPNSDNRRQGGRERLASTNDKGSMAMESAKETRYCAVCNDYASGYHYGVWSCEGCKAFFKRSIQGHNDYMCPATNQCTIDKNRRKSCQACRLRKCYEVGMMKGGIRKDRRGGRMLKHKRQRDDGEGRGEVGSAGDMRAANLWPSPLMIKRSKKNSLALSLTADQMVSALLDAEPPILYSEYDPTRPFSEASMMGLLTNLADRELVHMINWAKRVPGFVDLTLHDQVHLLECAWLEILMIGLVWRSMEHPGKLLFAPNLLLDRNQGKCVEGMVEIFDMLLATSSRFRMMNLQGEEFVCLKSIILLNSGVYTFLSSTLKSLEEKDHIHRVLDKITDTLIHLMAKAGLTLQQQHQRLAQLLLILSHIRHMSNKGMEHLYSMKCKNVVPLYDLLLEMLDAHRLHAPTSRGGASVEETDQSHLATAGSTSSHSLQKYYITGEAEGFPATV
# [12] = molecular target: T6, Aminopeptidase N (Plasmodium falciparum FcB1/Columbia, UniProt O96935); assay: malaria alanyl aminopeptidase activity blockers – biochemical, fluorogenic H-Leu-NHMec substrate, 1536-well (AID 1445); design: species or system Plasmodium falciparum 3D7, 3D7
# T6 sequence (O96935 whole entry): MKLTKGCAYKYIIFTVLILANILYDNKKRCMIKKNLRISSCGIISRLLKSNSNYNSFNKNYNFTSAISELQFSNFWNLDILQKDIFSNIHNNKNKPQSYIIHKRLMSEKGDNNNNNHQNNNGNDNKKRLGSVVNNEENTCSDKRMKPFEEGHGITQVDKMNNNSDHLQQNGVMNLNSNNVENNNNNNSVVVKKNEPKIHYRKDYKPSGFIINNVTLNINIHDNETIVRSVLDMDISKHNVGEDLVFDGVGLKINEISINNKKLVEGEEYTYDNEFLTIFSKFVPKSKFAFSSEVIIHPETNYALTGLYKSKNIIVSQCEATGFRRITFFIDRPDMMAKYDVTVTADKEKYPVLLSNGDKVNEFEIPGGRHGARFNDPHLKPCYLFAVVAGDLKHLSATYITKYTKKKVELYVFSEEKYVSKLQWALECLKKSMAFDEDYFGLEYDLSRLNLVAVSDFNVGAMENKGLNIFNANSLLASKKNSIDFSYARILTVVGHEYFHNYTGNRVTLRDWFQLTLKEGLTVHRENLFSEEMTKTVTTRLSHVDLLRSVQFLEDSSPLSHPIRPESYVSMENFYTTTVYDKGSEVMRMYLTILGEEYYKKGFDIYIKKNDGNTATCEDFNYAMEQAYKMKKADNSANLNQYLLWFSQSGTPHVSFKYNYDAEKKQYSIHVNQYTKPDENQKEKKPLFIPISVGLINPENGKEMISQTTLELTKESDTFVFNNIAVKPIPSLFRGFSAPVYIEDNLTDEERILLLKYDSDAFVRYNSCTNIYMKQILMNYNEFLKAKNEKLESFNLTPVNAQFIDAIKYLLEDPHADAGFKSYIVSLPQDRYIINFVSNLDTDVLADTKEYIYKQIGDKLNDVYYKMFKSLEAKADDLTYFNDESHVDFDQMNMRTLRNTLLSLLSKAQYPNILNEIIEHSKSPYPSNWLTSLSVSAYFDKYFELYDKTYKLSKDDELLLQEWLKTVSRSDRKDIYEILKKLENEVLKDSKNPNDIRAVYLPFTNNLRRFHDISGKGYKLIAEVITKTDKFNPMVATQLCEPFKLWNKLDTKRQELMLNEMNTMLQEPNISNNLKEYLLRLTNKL
# [13] = blockers of HIV-1 envelope-mediated cell-cell fusion – cherry-pick, dose response (AID 652057); type: functional, cell-based
# [14] = HIV-1 AD8 envelope cell-cell fusion blockers – cherry-pick, dose response (AID 652062); type: functional, cell-based;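 further: luciferase signal from cell-cell fusion driven by HIV-1 clade B AD8 Env; potency is for inhibitors of fusion seen as a drop in luminescence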
# [15] = viability of PTEN-deleted HCT116 cells – cell-based, HCT116 PTEN knockout, dose response (AID 1047); type: functional;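 further: HCT116 colon tumor cells with PTEN knocked out; cells exposed to compound for 60 hours before readout; potency for loss of cell viability measured by luminescence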
# [16] = viability of HCT116 lacking mutant beta-catenin – cell-based, human colon tumor, dose response (AID 1045); type: functional;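 further: HCT116 colon tumor cells with beta catenin knocked out; cells exposed to compound for 60 hours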
# T4 sequence (P11940 whole entry, the tested form may be a part): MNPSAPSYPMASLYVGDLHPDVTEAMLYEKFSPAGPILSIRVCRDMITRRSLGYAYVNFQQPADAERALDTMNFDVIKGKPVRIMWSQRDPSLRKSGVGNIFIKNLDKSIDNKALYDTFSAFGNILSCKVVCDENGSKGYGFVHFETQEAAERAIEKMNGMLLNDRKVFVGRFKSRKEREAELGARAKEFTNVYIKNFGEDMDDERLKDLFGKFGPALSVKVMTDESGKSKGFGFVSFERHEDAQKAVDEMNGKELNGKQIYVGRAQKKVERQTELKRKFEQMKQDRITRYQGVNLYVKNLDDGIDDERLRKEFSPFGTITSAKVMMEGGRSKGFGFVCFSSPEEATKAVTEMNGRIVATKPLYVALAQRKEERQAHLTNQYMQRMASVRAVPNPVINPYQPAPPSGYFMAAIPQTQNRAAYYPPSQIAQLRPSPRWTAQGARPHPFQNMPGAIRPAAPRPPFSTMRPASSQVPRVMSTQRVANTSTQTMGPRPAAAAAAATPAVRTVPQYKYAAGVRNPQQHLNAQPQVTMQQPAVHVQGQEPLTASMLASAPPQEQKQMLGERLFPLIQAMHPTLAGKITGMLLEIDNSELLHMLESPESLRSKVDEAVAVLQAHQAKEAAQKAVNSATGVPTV
# T3 sequence (P49327 whole entry): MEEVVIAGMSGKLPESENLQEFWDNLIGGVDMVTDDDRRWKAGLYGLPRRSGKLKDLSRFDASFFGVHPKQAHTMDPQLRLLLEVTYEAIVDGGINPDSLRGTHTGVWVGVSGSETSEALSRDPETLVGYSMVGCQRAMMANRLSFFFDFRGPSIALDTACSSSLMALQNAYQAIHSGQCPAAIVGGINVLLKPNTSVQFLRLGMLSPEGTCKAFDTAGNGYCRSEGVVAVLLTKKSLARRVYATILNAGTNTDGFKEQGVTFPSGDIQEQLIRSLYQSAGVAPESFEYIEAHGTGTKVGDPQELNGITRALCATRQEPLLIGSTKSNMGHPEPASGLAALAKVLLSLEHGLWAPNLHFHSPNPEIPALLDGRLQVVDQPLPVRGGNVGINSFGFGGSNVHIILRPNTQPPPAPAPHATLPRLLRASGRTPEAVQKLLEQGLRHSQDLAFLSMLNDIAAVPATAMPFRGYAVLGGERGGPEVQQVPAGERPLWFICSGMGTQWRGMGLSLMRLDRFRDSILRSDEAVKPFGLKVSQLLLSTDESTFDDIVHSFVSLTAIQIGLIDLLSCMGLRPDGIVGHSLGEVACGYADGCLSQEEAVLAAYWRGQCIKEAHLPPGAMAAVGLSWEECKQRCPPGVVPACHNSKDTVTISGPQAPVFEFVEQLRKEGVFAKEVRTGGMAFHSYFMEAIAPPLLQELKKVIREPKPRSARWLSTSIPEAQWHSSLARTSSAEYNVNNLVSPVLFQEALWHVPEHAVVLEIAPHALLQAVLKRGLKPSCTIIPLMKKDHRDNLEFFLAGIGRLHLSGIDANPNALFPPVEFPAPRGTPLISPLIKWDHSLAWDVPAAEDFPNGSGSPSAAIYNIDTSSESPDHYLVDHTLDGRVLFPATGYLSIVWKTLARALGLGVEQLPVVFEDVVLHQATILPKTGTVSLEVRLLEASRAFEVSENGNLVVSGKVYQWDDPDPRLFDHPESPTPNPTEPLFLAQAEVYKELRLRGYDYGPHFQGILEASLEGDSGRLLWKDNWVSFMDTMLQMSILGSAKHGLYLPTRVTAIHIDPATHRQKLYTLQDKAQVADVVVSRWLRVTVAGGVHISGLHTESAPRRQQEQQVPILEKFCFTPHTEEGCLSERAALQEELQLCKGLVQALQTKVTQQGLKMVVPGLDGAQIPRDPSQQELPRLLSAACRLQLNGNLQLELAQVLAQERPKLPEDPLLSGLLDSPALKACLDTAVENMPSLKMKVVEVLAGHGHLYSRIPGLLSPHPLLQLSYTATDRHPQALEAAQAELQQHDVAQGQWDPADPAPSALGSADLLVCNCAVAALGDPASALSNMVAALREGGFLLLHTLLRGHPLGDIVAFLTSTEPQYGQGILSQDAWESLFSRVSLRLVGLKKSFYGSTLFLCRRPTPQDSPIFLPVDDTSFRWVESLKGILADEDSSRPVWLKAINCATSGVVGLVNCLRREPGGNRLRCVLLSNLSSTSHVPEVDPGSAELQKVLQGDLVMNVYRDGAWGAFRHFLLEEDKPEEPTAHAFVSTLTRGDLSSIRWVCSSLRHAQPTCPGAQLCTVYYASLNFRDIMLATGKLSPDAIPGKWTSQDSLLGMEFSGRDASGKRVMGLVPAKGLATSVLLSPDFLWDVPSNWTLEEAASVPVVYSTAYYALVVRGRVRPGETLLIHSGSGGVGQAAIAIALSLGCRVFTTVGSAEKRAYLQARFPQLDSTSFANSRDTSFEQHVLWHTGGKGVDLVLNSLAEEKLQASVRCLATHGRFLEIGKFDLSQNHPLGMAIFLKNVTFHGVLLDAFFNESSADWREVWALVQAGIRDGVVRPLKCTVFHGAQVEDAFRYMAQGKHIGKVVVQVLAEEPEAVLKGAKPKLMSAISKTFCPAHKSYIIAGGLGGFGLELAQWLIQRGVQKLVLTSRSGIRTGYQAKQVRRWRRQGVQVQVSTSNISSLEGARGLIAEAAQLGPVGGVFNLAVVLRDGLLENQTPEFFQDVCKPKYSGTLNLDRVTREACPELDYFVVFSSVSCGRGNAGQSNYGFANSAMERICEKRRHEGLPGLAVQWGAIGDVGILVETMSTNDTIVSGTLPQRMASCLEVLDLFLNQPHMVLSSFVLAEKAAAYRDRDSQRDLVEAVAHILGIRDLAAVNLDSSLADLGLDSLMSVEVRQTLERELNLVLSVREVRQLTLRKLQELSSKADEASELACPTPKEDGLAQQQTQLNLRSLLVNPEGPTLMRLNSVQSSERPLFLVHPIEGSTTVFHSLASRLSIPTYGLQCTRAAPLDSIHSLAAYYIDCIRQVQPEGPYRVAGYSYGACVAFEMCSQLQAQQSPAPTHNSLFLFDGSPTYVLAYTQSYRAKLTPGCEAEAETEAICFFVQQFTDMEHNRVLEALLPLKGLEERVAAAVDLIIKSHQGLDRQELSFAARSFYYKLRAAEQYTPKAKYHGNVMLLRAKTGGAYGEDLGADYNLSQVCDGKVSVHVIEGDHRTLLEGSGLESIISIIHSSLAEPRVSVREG
smiles,measurement,setting,value
COc1cc2nc(CSc3nc(-c4ccc(F)cc4)cs3)nc(O)c2cc1OC,EC50,[1],> 150 µM (not active)
same,EC50,[2],> 150 µM (not active)
same,EC50,[3],> 150 µM (not active)
same,EC50,[4],> 260 µM (inactive)
CC1(C)c2cc(O)ccc2OC1N1CCOCC1 (configuration not stated),EC50,[4],> 260 µM (inactive)
O=[N+]([O-])c1cccc(CN2CC=C(c3ccc(F)cc3)CC2)c1,IC50,[5],11.4 µM (active)
same,IC50,[6],9.86 µM (active)
O=C(COC(=O)c1cc([N+](=O)[O-])ccc1N1CCOCC1)NCCc1ccccc1,IC50,[5],1.98 µM (active)
same,IC50,[6],2.6 µM (active)
O=S(=O)([N-]c1nc2ccccc2nc1-[n+]1ccc(Cc2ccccc2)cc1)c1ccc(Br)s1,AC50,[7],6.23 µM (active)
same,AC50,[8],6.81 µM (active)
same,IC50,[9],> 66 µM (inactive)
same,IC50,[10],52.3 µM (inactive)
Cc1cc(O)nc(-n2ncc(C#N)c2N)n1,EC50,[4],> 260 µM (inactive)
CN(C)CCc1nc2ccccc2c(=O)n1-c1ccccc1,EC50,[4],> 260 µM (inactive)
CCCOc1ccc(C(=O)NNC(=S)NC(=O)c2cc(-c3ccc(Cl)cc3)nc3ccccc23)cc1,EC50,[1],< 0.06 µM (active)
same,EC50,[3],< 0.06 µM (active)
same,IC50,[9],> 66 µM (inactive)
same,IC50,[10],> 66 µM (inactive)
COc1ccc([N+](=O)[O-])cc1C(=O)NCCOc1ccc(Cl)cc1,IC50,[5],5.95 µM (active)
same,IC50,[6],7.34 µM (active)
CCN(CCCNC(=O)CCCN1C(=O)COc2ccc(C)cc21)c1cccc(C)c1,EC50,[4],> 260 µM (inactive)
COc1cc(OC)c(OC)cc1CN(C)CCc1ccccn1,EC50,[4],> 260 µM (inactive)
Cc1ccc(-c2nnn(CC(=O)Nc3ccc4nn(-c5ccccc5)nc4c3)n2)o1,IC50,[11],> 50 µM (not active)
O=C(O)/C(=C\c1ccc(-c2ccc(F)cc2)o1)c1ccccc1,IC50,[12],51.4 µM (active)
COc1cccc(-c2nc(=S)c3c(n2CCCO)CCCC3)c1,IC50,[9],> 66 µM (inactive)
same,IC50,[10],> 66 µM (inactive)
CCC(=O)Nc1nonc1-c1nc2ccccc2n1N(C(=O)CC)C(=O)CC,IC50,[11],> 50 µM (not active)
Cc1ccc(NC(=O)c2cnn(-c3ccccc3)c2C)cc1,EC50,[4],> 260 µM (inconclusive)
Cc1ccc(CNC(=O)CSc2nc3ccsc3c(=O)n2NC(=O)c2ccccc2)cc1,IC50,[12],11.1 µM (active)
COc1ccc(CN2CC(=O)N3[C@H]4c5ccccc5OC[C@@H]4[C@H](c4ccccc4)[C@]3(C)C2=O)cc1,IC50,[9],> 66 µM (inactive)
same,IC50,[10],> 66 µM (inactive)
CCOC(=O)N1CCN(C(=O)C(=O)NNC(=O)COc2ccc(Cl)cc2)CC1,IC50,[12],106 µM (active)
O=S(=O)(c1cccc(-c2cn3cccnc3n2)c1)N1CCCCCC1,IC50,[11],22.3 µM (active)
O=C(NCc1ccc2c(c1)OCO2)C1CCCN(S(=O)(=O)c2cccnc2)C1 (configuration not stated),IC50,[12],70.7 µM (active)
O=C(/C=C/c1cccc([N+](=O)[O-])c1)NC(=S)Nc1ccc(CN2CCOCC2)cc1,EC50,[4],14.6 µM (active)
same,IC50,[9],> 66 µM (inactive)
same,IC50,[10],> 66 µM (inactive)
CSc1nc(NCc2ccco2)c2ccccc2n1,IC50,[11],> 50 µM (not active)
Brc1ccc(-c2nnc(-c3cccnc3)c3conc23)cc1,IC50,[11],6.62 µM (active)
O=C(OCC(=O)N1CCN(c2ccccc2)CC1)c1cccc([N+](=O)[O-])c1,IC50,[5],7.7 µM (active)
same,IC50,[6],11.9 µM (active)
COC(=O)Cn1c(=O)c2c(nc3n2CC(C)CN3CCc2ccccc2)n(C)c1=O (configuration not stated),EC50,[4],> 260 µM (inactive)
CC1=CC(=O)C=CC1=Nc1ccc(N(C)C)cc1,IC50,[9],61.6 µM (inactive)
same,IC50,[10],> 66 µM (inactive)
N#Cc1cc(Oc2ccc(Cl)cc2)c(N2CCOCC2)cc1C#N,IC50,[5],4.35 µM (active)
same,IC50,[6],4.83 µM (active)
COc1ccccc1-c1ccc2c(c1)O[C@H](CN(C)S(=O)(=O)c1ccc(C)cc1)[C@H](C)CN([C@@H](C)CO)S2(=O)=O,AC50,[13],2.84 µM (active)
same,AC50,[14],2.97 µM (active)
N#C/C(=C(\O)Nc1ccc(Cl)cc1)c1nc2ccccc2[nH]1,IC50,[11],27.1 µM (active)
same,EC50,[15],31.9 µM (active)
same,EC50,[16],35.1 µM (active)
